Values quoted from earlier work as cited in US8653094B2, “Solid forms of (S)-ethyl 2-amino-3-(4-(2-amino-6-((R)-1-(4-chloro-2-(3-methyl-1H-pyrazol-1-yl)phenyl)-2,2,2-trifluoroethoxy)-pyrimidin-4-yl)phenyl)propanoate and methods of their use” (Lexicon Pharmaceuticals, Inc., priority 2007, dated 2014).

What was measured:
tryptophan hydroxylase = details: statement in words; see U.S. patent application No. 60/874,596
[1] = test system: peripheral serotonin levels; details: when administered to animals; see U.S. patent application No. 60/874,596

tryptophan hydroxylase inhibition (tryptophan hydroxylase): inhibitor of tryptophan hydroxylase
SMILES: CCOC(=O)[C@@H](N)Cc1ccc(-c2cc(O[C@H](c3ccc(Cl)cc3-n3ccc(C)n3)C(F)(F)F)nc(N)n2)cc1 [(S)-ethyl 2-amino-3-(4-(2-amino-6-((R)-1-(4-chloro-2-(3-methyl-1H-pyrazol-1-yl)phenyl)-2,2,2-trifluoroethoxy)pyrimidin-4-yl)phenyl)propanoate]
effect on peripheral serotonin levels [1]: decreases peripheral serotonin levels
